Assay results from BindingDB's records for doi:10.1016/j.ejmech.2014.07.015 (Tianjin University, 2014).
Residues, ends and D or L forms follow the SMILES beside them.

Target: Angiotensin-converting enzyme (Homo sapiens, UniProt P12821)
Experiment: Inhibition of ACE (unknown origin)

Angiotensin-converting enzyme, sequence (P12821 whole entry): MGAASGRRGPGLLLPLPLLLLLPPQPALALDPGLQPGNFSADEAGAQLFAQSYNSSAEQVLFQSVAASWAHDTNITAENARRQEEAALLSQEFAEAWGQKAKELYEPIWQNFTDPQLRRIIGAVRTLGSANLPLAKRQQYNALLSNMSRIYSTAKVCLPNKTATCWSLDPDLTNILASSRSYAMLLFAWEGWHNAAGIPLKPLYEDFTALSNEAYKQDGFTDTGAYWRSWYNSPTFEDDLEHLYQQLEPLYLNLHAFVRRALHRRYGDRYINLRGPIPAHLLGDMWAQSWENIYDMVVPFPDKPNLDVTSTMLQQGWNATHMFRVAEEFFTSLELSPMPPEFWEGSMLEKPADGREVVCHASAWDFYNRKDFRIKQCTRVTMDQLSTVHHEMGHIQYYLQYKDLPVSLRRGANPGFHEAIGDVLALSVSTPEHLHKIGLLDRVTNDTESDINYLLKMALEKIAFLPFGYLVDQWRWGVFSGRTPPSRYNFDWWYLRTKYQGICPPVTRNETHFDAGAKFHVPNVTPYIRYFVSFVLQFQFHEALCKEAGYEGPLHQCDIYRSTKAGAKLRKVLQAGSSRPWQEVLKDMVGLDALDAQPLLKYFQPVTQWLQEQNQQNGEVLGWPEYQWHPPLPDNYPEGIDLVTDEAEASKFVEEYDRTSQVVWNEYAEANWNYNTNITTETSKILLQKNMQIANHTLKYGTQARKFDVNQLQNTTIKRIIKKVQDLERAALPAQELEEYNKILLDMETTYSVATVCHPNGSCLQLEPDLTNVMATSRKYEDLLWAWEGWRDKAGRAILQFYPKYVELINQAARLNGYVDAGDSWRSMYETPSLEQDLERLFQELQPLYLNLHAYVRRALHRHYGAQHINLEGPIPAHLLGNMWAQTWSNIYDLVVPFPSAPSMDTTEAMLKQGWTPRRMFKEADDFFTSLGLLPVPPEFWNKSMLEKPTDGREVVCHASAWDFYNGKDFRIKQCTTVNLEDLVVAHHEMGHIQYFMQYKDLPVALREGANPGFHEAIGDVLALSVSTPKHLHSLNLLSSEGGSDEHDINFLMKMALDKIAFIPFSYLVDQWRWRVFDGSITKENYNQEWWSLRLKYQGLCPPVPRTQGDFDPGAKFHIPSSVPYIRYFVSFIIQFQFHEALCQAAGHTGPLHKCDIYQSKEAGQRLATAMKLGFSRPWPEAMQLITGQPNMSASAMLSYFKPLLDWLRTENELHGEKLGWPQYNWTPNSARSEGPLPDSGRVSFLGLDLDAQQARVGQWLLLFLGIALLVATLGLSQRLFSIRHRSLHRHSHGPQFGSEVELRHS

Row | Molecule | IC50 [µM]
1 | CC(C)C[C@H](N)C(=O)N[C@@H](Cc1ccc(O)cc1)C(=O)O | 32.3
2 | N=C(N)NCCC[C@H](N)C(=O)N[C@@H](Cc1ccccc1)C(=O)O | 93.3
3 | NC(N)=NCCC[C@H](N)C(=O)N1CCC[C@H]1C(=O)O (H-Arg-Pro-OH) | 20.8
4 | NC(N)=NCCC[C@H](N)C(=O)N[C@@H](Cc1c[nH]c2ccccc12)C(=O)O (H-Arg-Trp-OH) | 15.8
5 | NC(=O)C[C@H](N)C(=O)N[C@@H](Cc1ccccc1)C(=O)O (H-Asn-Phe-OH) | 46.7
6 | CC(C)[C@H](NC(=O)[C@@H](N)Cc1ccccc1)C(=O)N[C@@H](C)C(=O)N1CCC[C@H]1C(=O)O (H-FVAP-OH) | 10
7 | N=C(N)NCCC[C@H](NC(=O)CN)C(=O)N1CCC[C@H]1C(=O)O (H-Gly-Arg-Pro-OH) | 19.9
8 | CC[C@H](C)[C@H](N)C(=O)N[C@@H](CCCCN)C(=O)N1CCC[C@H]1C(=O)O (H-Ile-Lys-Pro-OH) | 6.91
9 | CC(C)C[C@H](N)C(=O)N[C@@H](CC(N)=O)C(=O)N1CCC[C@H]1C(=O)O (H-Leu-Asn-Pro-OH) | 57.5
10 | CC(C)C[C@H](N)C(=O)N[C@@H](Cc1ccc(O)cc1)C(=O)N1CCC[C@H]1C(=O)O (H-Leu-Tyr-Pro-OH) | 6.6
11 | CSCC[C@H](N)C(=O)N[C@@H](CC(N)=O)C(=O)N1CCC[C@H]1C(=O)O (H-Met-Asn-Pro-OH) | 66
12 | NC(=O)CC[C@H](NC(=O)[C@@H](N)Cc1ccccc1)C(=O)N1CCC[C@H]1C(=O)O (H-Phe-Gln-Pro-OH) | 12
13 | N[C@@H](Cc1ccccc1)C(=O)N[C@@H](CCC(=O)O)C(=O)N1CCC[C@H]1C(=O)O (H-Phe-Glu-Pro-OH) | 12
14 | CC(C)[C@H](N)C(=O)N[C@@H](CO)C(=O)N[C@@H](CO)C(=O)N1CCC[C@H]1C(=O)O (H-VSSP-OH) | 10
15 | CC(C)[C@H](N)C(=O)NCC(=O)N1CCC[C@H]1C(=O)O (H-Val-Gly-Pro-OH) | 26.3
16 | CSCC[C@H](NC(=O)[C@@H](N)C(C)C)C(=O)N1CCC[C@H]1C(=O)O (H-Val-Met-Pro-OH) | 28.8
17 | CC(C)[C@H](N)C(=O)N[C@@H](CO)C(=O)N1CCC[C@H]1C(=O)O (H-Val-Ser-Pro-OH) | 10
18 | C[C@H](N)C(=O)N[C@@H](Cc1ccccc1)C(=O)O [2-(2-Amino-propionylamino)-3-phenyl-propionic acid] | 75.8
19 | NCC(=O)N[C@@H](Cc1c[nH]c2ccccc12)C(=O)O [2-((S)-2-Amino-acetylamino)-3-(1H-indol-3-yl)-propionic acid] (H-Gly-Trp-OH) | 25.1
20 | CC(C)[C@H](N)C(=O)N[C@@H](Cc1ccccc1)C(=O)O [(S)-2-((S)-2-Amino-3-methyl-butyrylamino)-3-phenyl-propionic acid] (H-Val-Phe-OH) | 9.12
21 | C[C@H](N)C(=O)N[C@@H](Cc1c[nH]c2ccccc12)C(=O)O [(S)-2-((S)-2-Amino-propionylamino)-3-(1H-indol-3-yl)-propionic acid] (H-Ala-Trp-OH) | 12
22 | C[C@H](N)C(=O)N[C@@H](Cc1ccc(O)cc1)C(=O)O [(S)-2-((S)-2-Amino-propionylamino)-3-(4-hydroxy-phenyl)-propionic acid] (H-Ala-Tyr-OH) | 19
23 | CC(C)[C@H](N)C(=O)N[C@@H](Cc1ccc(O)cc1)C(=O)O [Ang(3-4)] (H-Val-Tyr-OH) | 15.8

Row | Molecule | IC50 [µM]
24 | NC(=O)C[C@H](N)C(=O)N[C@@H](Cc1ccc(O)cc1)C(=O)O [CHEBI:73427] (H-Asn-Tyr-OH) | 32.3
25 | N[C@@H](CC(=O)O)C(=O)N[C@@H](Cc1ccc(O)cc1)C(=O)O [CHEBI:73455] (H-Asp-Tyr-OH) | 100
26 | CC(C)C[C@H](N)C(=O)N[C@@H](Cc1c[nH]c2ccccc12)C(=O)O [CHEBI:73590] | 17.3
27 | NCCCC[C@H](N)C(=O)N[C@@H](Cc1ccccc1)C(=O)O [CHEBI:73605] | 28.1
28 | N[C@@H](Cc1ccccc1)C(=O)N[C@@H](Cc1ccc(O)cc1)C(=O)O [CHEBI:73637] (H-Phe-Tyr-OH) | 25.1
29 | N[C@@H](CO)C(=O)N[C@@H](Cc1ccc(O)cc1)C(=O)O [CHEBI:73652] (H-Ser-Tyr-OH) | 66
30 | N=C(N)NCCC[C@H](N)C(=O)N[C@@H](Cc1ccc(O)cc1)C(=O)O [CHEBI:73822] (H-Arg-Tyr-OH) | 51.2
31 | N[C@@H](Cc1c[nH]cn1)C(=O)N[C@@H](Cc1ccc(O)cc1)C(=O)O [CHEBI:74059] (H-His-Tyr-OH) | 26.3
32 | NCCCC[C@H](N)C(=O)N1CCC[C@H]1C(=O)O [CHEBI:74567] (H-Lys-Pro-OH) | 21.8
33 | CSCC[C@H](N)C(=O)N[C@@H](Cc1ccccc1)C(=O)O [CHEBI:74708] (H-Met-Phe-OH) | 44.6
34 | CSCC[C@H](N)C(=O)N[C@@H](Cc1c[nH]c2ccccc12)C(=O)O [CHEBI:74709] (H-Met-Trp-OH) | 10
35 | C[C@@H](O)[C@H](N)C(=O)N[C@@H](Cc1ccccc1)C(=O)O [CHEBI:74862] (H-Thr-Phe-OH) | 89.1
36 | H-AVPYP-OH | 79.4
37 | H-DYGLYP-OH | 61.6
38 | H-LAYFYP-OH | 64.5
39 | H-LHLWLP-OH | 8.91
40 | H-LHLYLP-OH | 19
41 | H-RPQIPP-OH | 45.7
42 | H-SKVPP-OH | 74.1
43 | H-VHLPP-OH | 18.1
44 | H-VLPIP-OH | 30.9
45 | H-VLPYP-OH | 36.3

Now those with a lower IC50, led by results:

Row | IC50 [µM] | Molecule
46 | 4.67 | CC[C@H](C)[C@H](N)C(=O)N[C@@H](Cc1c[nH]c2ccccc12)C(=O)O
47 | 3.09 | CC(C)[C@H](NC(=O)[C@H](C)N)C(=O)NCC(=O)N1CCC[C@H]1C(=O)O (H-AVGP-OH)
48 | 4.78 | CC(C)C[C@H](NC(=O)[C@@H](N)CC(=O)O)C(=O)N1CCC[C@H]1C(=O)O (H-Asp-Leu-Pro-OH)
49 | 3.89 | C[C@H](NC(=O)[C@H](Cc1c[nH]c2ccccc12)NC(=O)CN)C(=O)N1CCC[C@H]1C(=O)O (H-GWAP-OH)
50 | 1.58 | CC[C@H](C)[C@H](N)C(=O)N[C@@H](CCC(=O)O)C(=O)N1CCC[C@H]1C(=O)O (H-Ile-Glu-Pro-OH)
51 | 3.46 | CC(C)C[C@H](N)C(=O)N[C@@H](C)C(=O)N1CCC[C@H]1C(=O)O (H-Leu-Ala-Pro-OH)
52 | 1.9 | CC(C)C[C@H](N)C(=O)N[C@@H](CCC(=O)O)C(=O)N1CCC[C@H]1C(=O)O (H-Leu-Glu-Pro-OH)
53 | 3.98 | CC(C)C[C@H](N)C(=O)N[C@@H](CCCCN)C(=O)N1CCC[C@H]1C(=O)O (H-Leu-Lys-Pro-OH)
54 | 1.69 | CC(C)C[C@H](N)C(=O)N[C@@H](CO)C(=O)N1CCC[C@H]1C(=O)O (H-Leu-Ser-Pro-OH)
55 | 3.8 | C[C@H](NC(=O)[C@@H](N)Cc1ccccc1)C(=O)N1CCC[C@H]1C(=O)O (H-Phe-Ala-Pro-OH)
56 | 2.18 | CC(C)[C@H](N)C(=O)N[C@@H](CCCNC(=N)N)C(=O)N1CCC[C@H]1C(=O)O (H-Val-Arg-Pro-OH)
57 | 6.16 | CC[C@H](C)[C@H](N)C(=O)N[C@@H](Cc1ccc(O)cc1)C(=O)O [(S)-2-((S)-2-Amino-3-(S)-methyl-pentanoylamino)-3-(4-hydroxy-phenyl)-propionic acid] (H-Ile-Tyr-OH)
58 | 1.9 | CC(C)C[C@H](N)C(=O)N[C@@H](CCC(N)=O)C(=O)N1CCC[C@H]1C(=O)O [CHEBI:73270] (H-Leu-Gln-Pro-OH)
59 | 2.69 | CC[C@H](C)[C@H](N)C(=O)N[C@@H](C)C(=O)N1CCC[C@H]1C(=O)O [Ile-Ala-Pro] (H-Ile-Ala-Pro-OH)
60 | 6.02 | H-FFVAP-OH
61 | 2.18 | H-IAYKP-OH
62 | 6.02 | H-LHLPAP-OH
63 | 1.9 | H-LHLPGP-OH
64 | 3.71 | H-LHLPLP-OH
65 | 2.29 | H-LHLPYP-OH
66 | 4.46 | H-VHLAP-OH
